Legend:
[1] = grB enzymatic activity (ASPase assay); assay type: biochemical, human
Source text: Human grB was purified from the cytolytic granules of YT-Indy cells as described previously (Caputo et al., 1999). GrB was derivatized with sulfo-NHS-biotin (Pierce) or OG 488 (Molecular Probes) as per the manufacturer's directions for labeling protein. Derivatized grB was separated from unbound probe by passing the material through a Sephadex G-25 column (HiTrapθ Desalting column, Pharmacia Biotech) with saline or phosphate-buffered saline (PBS) as the buffer. Typically the concentration of unlabeled grB was ˜50 μg/ml, whereas the estimated concentration of derivatized material was ˜5 μg/ml. GrB was assayed for enzymatic activity using an ASPase assay as previously described (Caputo et al., 1993).

CI-MPR^+ cells = test: TUNEL and annexin V apoptosis assays with grB and AD; assay type: cell-based, murine L cells transfected with human CI-MPR
Method: (§1) For the in vitro killing assays, 10 pfu per cell of replication-deficient adenovirus (AD) were added subsequent to grB addition. Analysis of DNA fragmentation by TUNEL analysis has been described previously (Heibein et al., 1999). TUNEL materials (Roche Diagnostics) were used as per the manufacturer's instructions. Phosphatidylserine externalization was measured as previously described (Heibein et al., 1999) using annexin V-FITC (PharMingen). Percent specific TUNEL/annexin V positive cells was calculated as: [(% positive labeling cells with grB and AD-% positive labeling cells without grB and AD)/(100-% positive labeling cells without grB and AD)]×100.

CD-MPR^+ cells [2] = test: GrB uptake (unpublished findings); assay type: cell-based, murine L cells transfected with human CD-MPR; conditions: CD-MPR-overexpressing CD-MPR^+ cells
procaspase-3 = test: Caspase 3 cleavage by Western blotting; assay type: cell-based, human; conditions: grB (18 nM) and AD, 3 hr
Method: Cells were resuspended at 10^6 cells/ml in 0.1% BSA/DMEM. Adenovirus (10 PFU/cell) and granzyme B (grB) were added directly to the cell suspension. Cells were incubated at 37° C. for 3 h. For staurosporine killing, cells were resuspended at 10^6 cells/ml in their normal growth medium and staurosporine (2.5 μM) was added directly to the cell suspension. Cells were incubated at 37° C. for 2, 4 and 8 h. Cellular lysates were collected by directly harvesting 10^5 cells into 100 μl of sodium dodecyl sulfate-polyacrylamide gel electrophoresis (SDS-PAGE) gel loading buffer and subjected to SDS-PAGE analysis. Proteins were transferred to nitrocellulose (Micron Separations Inc.) by using a semidry transfer apparatus (Tyler Corp.) for 1 h at 150 mA. Membranes were blocked in phosphate-buffered saline (PBS) containing 0.1% Tween 20 (ICN Biomedicals Inc.) and 5% skim milk for 16 h. Caspase 3 was detected using polyclonal rabbit anti-caspase 3 at a dilution of 1:10,000. The membrane was incubated with the primary antibody for 2 h, after which the blot was washed three times in PBS containing 0.1% Tween 20. The membranes were probed with a horseradish peroxidase-conjugated goat anti-rabbit secondary antibody (Bio-Rad Laboratories) at a 1:20,000 dilution. Transferred proteins were visualized with a chemiluminescence detection system (Amersham Inc.).

CD-MPR^+ cells [3] = test: TUNEL and annexin V apoptosis assays with grB and AD; assay type: cell-based, murine L cells transfected with human CD-MPR; conditions: 100 ng/ml grB and AD, 3 hr
Method: as §1

Jurkat cells = test: as above; assay type: cell-based, human
Method: GrB was treated for 1 hr at 37° C. in a phosphate-free (saline) or a high-phosphate (64.5 mM Na2HPO4.7H2O, 21 mM KH2PO4) buffer with calf intestinal alkaline phosphatase (1-10 U), 20 nM of the 37 kDa catalytic subunit of recombinant protein phosphatase-1 (Bagu et al, 1997), or with vehicle control. Cells were then incubated with the treated grB at 4° C. for 30-60 min. For the TUNEL or annexin V assays, cells were then washed twice before incubation at 37° C. with AD.
M6P and various other monosaccharides at different concentrations were added to cells for 15 min at 4° C. before the addition of labeled grB, or at room temperature before the addition of grB and AD.
GrB was incubated with sCI-MPR at various concentrations in PBS/0.1% BSA for 30 min at 4° C. Subsequently, cells were incubated with grB/sCI-MPR for 30-60 min at 4° C. and washed twice, before analysis of binding, or before the addition of AD for TUNEL and annexin V analysis.
as §1
Cells were resuspended at 10^6 cells/ml in 0.1% BSA/DMEM. Adenovirus (10 PFU/cell) and granzyme B (grB) were added directly to the cell suspension. Cells were incubated at 37° C. for 3 h. For staurosporine killing, cells were resuspended at 10^6 cells/ml in their normal growth medium and staurosporine (2.5 μM) was added directly to the cell suspension. Cells were incubated at 37° C. for 2, 4 and 8 h.
(§2) DNA fragmentation was monitored by flow cytometric analysis via the terminal deoxynucleotidyltransferase-mediated dUTP-biotin nick end labeling (TUNEL) method. Flow cytometric analysis was performed on a Becton Dickinson FACScanθ flow cytometer equipped with an argon-ion laser with 15 mW of excitation at 488 nm. Emission wavelengths were detected through the FL1 channel. Data were acquired on 10,000 cells per sample with light scatter signals at linear gain and fluorescence signals at logarithmic gain. Percent specific TUNEL positive cells was calculated as follows: [(% positive labeling cells with grB and AD−% positive labeling cells without grB and AD)/(AD−% positive labeling cells without grB and AD)]×100.
as §2, with “Phosphatidylserine externalization” for “DNA fragmentation”, “monitored using the ApoAlertθ annexin V apoptosis kit (Clontech) according to the protocol provided” for “monitored”, “by” for “by flow cytometric analysis via”, “manufacturer.” for “terminal deoxynucleotidyltransferase-mediated dUTP-biotin nick end labeling (TUNEL) method.”, “Annexin V” for “TUNEL”

[4] = grB treated with catalytic subunit of protein phosphatase-1 (data not shown)

**Q.** For “grB: Human serine proteinase granzyme B purified from the cytolytic granules of YT-Indy cells”, which “enzymatic activity of grB” value [1, 4] is on record?
**A.** Its value is “did not lose”.

**Q.** And the “enzymatic activity of grB” value ([1]; grB treated with phosphatase in a phosphate-free buffer)?
**A.** The value was “no effect”.

**Q.** What about the “TUNEL and annexin V positive cells” value (CI-MPR^+ cells; at later times (data not shown)) of the same substance?
**A.** The value was roughly 100%.

**Q.** What about the “TUNEL and annexin V positive cells” value (CI-MPR^+ cells; at the time-point of the assay (3 hr)) of the same substance?
**A.** The value was “about 30%”.

**Q.** What about the grB uptake (CD-MPR^+ cells [2]) of the same substance?
**A.** The grB uptake was “essentially no grB uptake”.

**Q.** And the “cleavage of procaspase-3” value (procaspase-3; Jurkat cells)?
**A.** Its value is “able to observe cleavage”.

**Q.** And the “cleavage of procaspase-3” value (procaspase-3; MDA-MB-231 cells)?
**A.** Its value is “unable to observe any cleavage”.

**Q.** What about the “cleavage of procaspase-3” value (procaspase-3; SK-BR-3 cells) of the same substance?
**A.** Its value is “unable to observe any cleavage”.

**Q.** What about the “cleavage of procaspase-3” value (procaspase-3; T47-D cells) of the same substance?
**A.** The value was “able to observe cleavage”.

**Q.** And the “annexin V binding after grB and AD” value (CD-MPR^+ cells [3])?
**A.** The value was “did not bind annexin V”.

**Q.** And the “grB and AD-mediated DNA fragmentation” value (CD-MPR^+ cells [3])?
**A.** Its value is “resistant”.

**Q.** What about the “percentage of TUNEL/annexin V positive cells” value (Jurkat cells; Jurkat cells incubated with only grB (no AD)) of the same substance?
**A.** Its value is “under 8%”.

**Q.** And the “TUNEL and annexin V labeling” value (Jurkat cells; Jurkat cells, 3 hr, varying concentrations of grB and AD (Example 2))?
**A.** The value was “significant TUNEL and annexin V labeling”.

**Q.** What about the “ability to induce apoptosis of Jurkat cells” value (Jurkat cells; [4]) of the same substance?
**A.** Its value is “did not lose”.

**Q.** What about the “concentration sufficient to elicit effective Jurkat cell killing” value (Jurkat cells; granule-purified grB with AD (FIG. 3C)) of the same substance?
**A.** The value was “less than 1 ng/ml”.
